Experimental data as given in patent publication US20070049564A1 (Wyeth, priority 2005, published 2007).
≈ marks a conversion by molar mass, not a printed value. Like-named read-outs stand apart in the source and are kept apart here.

Assays:
E. coli = assay: Range of MIC for E. coli strains; conditions: Escherichia coli
Protocol: (§1) Antimicrobial susceptibility testing. The in vitro activities of the antibiotics are determined by the broth microdilution method as recommended by the National Committee for Clinical Laboratory Standards (NCCLS) (1). Mueller-Hinton II broth (MHBII)(BBL Cockeysville, Md.) is the medium employed in the testing procedures. Microtiter plates containing serial dilutions of each antimicrobial agent are inoculated with each organism to yield the appropriate density (10^5 CFU/ml) in a 100 μl final volume. The plates are incubated for 18-22 hours at 35° C. in ambient air.
(§2) Representative compounds were first incubated in mouse serum for an hour prior to the in vitro testing against a panel of selected gram-positive and gram-negative bacteria strains. All compounds were also pre-incubated in water for an hour prior to testing as control. Representative compounds of Formula I were incubated in human serum prior to MIC determination.

Staph. aureus Smith = assay: In vivo activity (oral, iv; ED50) against Staph. aureus Smith in mice
Protocol: Representative examples of compounds of Formula I were tested for the oral efficacy using S. aureus Smith in mice.

Staph. = assay: Range of MIC for Staph. strains, including MRSA; conditions: Staphylococcus aureus
Protocol: as §1, §2

E. coli #311 = assay: In vivo activity (oral, iv; ED50) against E. coli in mice; conditions: Escherichia coli
Excerpt: . […] Smith and E. Coli #311 in mammals.
Results of the tests (MIC, oral and IV) are list in Table 7.

[1] = 20 h, read-out: Range of MIC, E. coli (Mouse Serum)
[2] = read-out: Range of MIC, E. coli (Water)
[3] = Staphylococcus aureus, in Mus musculus, po, read-out: ED50 Staph Smith SOD
[4] = iv, read-out: ED50 Staph Smith SIV
[5] = MRSA, read-out: Range of MIC, Staph (Mouse Serum)
[6] = MRSA, read-out: Range of MIC, Staph (Water)
[7] = read-out: Minimum inhibitory concentration (MIC), Staph (Human Serum)
[8] = read-out: Minimum inhibitory concentration (MIC), Staph (Water)
[9] = read-out: Minimum inhibitory concentration (MIC), E. coli (Human Serum)

| SMILES | MIC (E. coli; [1]) | MIC (E. coli; [2]) | MIC (E. coli; read-out: Range of MIC, E. coli (mouse serum)) | MIC (E. coli; read-out: Range of MIC, E. coli (water)) | ED50 (Staph. aureus Smith; [3]) | ED50 (Staph. aureus Smith; [4]) | MIC (Staph.; [5]) | MIC (Staph.; [6]) | MIC (Staph.; MRSA, read-out: Range of MIC, Staph. (mouse serum)) | MIC (Staph.; MRSA, read-out: Range of MIC, Staph. (water)) | ED50 (E. coli #311; single intravenous dose (SIV), read-out: ED50 E. coli #311 SIV) | ED50 (E. coli #311; single oral dose (SOD), read-out: ED50 E. coli #311 SOD) | MIC (Staph.; [7]) | MIC (Staph.; [8]) | MIC (E. coli; [9]) | MIC (E. coli; read-out: Minimum inhibitory concentration (MIC), E. coli (water)) |
| --- | --- | --- | --- | --- | --- | --- | --- | --- | --- | --- | --- | --- | --- | --- | --- | --- |
| CCCN(CC(=O)Nc1cc(N(C)C)c2c(c1O)C(=O)C1=C(O)[C@]3(O)C(=O)C(C(N)=O)=C(O)[C@@H](N(C)C)[C@@H]3C[C@@H]1C2)C(=O)OCOC(=O)C12CC3CC(CC(C3)C1)C2 [Example 41, ({[(2-{[(5aR,6aS,7S,10aS)-9-(aminocarbonyl)-4,7-bis(dimethylamino)-1,8,10a,11-tetrahydroxy-10,12-dioxo-5,5a,6,6a,7,10,10a,12-octahydrotetracen-2-yl]amino}-2-oxoethyl)(propyl)amino]carbonyl}oxy)methyl adamantane-1-carboxylate] | 0.5 to 4 µg/mL (≈ 0.619 to 4.95 µM) | 16 to 64 µg/mL (≈ 19.8 to 79.2 µM) | 0.5 to 4 µg/mL (≈ 0.619 to 4.95 µM) | 16 to 64 µg/mL (≈ 19.8 to 79.2 µM) | 11.3 mg/kg | 0.83 mg/kg | 0.5 to 4 µg/mL (≈ 0.619 to 4.95 µM) | 1 to 8 µg/mL (≈ 1.24 to 9.9 µM) | 0.5 to 4 µg/mL (≈ 0.619 to 4.95 µM) | 1 to 8 µg/mL (≈ 1.24 to 9.9 µM) |  |  |  |  |  |  |
| CN(C)c1cc(NC(=O)CN(C(=O)OCOC(=O)c2ccc(C(F)(F)F)cc2)C(C)(C)C)c(O)c2c1C[C@H]1C[C@H]3[C@H](N(C)C)C(O)=C(C(N)=O)C(=O)[C@@]3(O)C(O)=C1C2=O [Example 55, ({[(2-{[(5aR,6aS,7S,10aS)-9-(aminocarbonyl)-4,7-bis(dimethylamino)-1,8,10a,11-tetrahydroxy-10,12-dioxo-5,5a,6,6a,7,10,10a,12-octahydrotetracen-2-yl]amino}-2-oxoethyl)(tert-butyl)amino]carbonyl}oxy)methyl 4-(trifluoromethyl)benzoate] | 0.5 to 8 µg/mL (≈ 0.601 to 9.62 µM) |  |  |  | > 16 mg/kg | 1.81 mg/kg | 1 to 2 µg/mL (≈ 1.2 to 2.4 µM) | 2 to 8 µg/mL (≈ 2.4 to 9.62 µM) |  |  | 4.69 mg/kg | 32 mg/kg | 1 to 4 µg/mL (≈ 1.2 to 4.81 µM) | 2 to 8 µg/mL (≈ 2.4 to 9.62 µM) |  |  |
| CN(C)c1cc(NC(=O)CN(C(=O)OCOC(=O)C2CC2)C(C)(C)C)c(O)c2c1C[C@H]1C[C@H]3[C@H](N(C)C)C(O)=C(C(N)=O)C(=O)[C@@]3(O)C(O)=C1C2=O [Example 56, ({[(2-{[(5aR,6aS,7S,10aS)-9-(aminocarbonyl)-4,7-bis(dimethylamino)-1,8,10a,11-tetrahydroxy-10,12-dioxo-5,5a,6,6a,7,10,10a,12-octahydrotetracen-2-yl]amino}-2-oxoethyl)(tert-butyl)amino]carbonyl}oxy)methyl cyclopropanecarboxylate] | 0.25 to 2 µg/mL (≈ 0.344 to 2.75 µM) |  |  |  | > 16 mg/kg | 0.79 mg/kg | 0.25 to 1 µg/mL (≈ 0.344 to 1.37 µM) | 1 to 4 µg/mL (≈ 1.37 to 5.5 µM) |  |  |  |  | 0.25 to 2 µg/mL (≈ 0.344 to 2.75 µM) | 1 to 4 µg/mL (≈ 1.37 to 5.5 µM) | 4 to 32 µg/mL (≈ 5.5 to 44 µM) |  |
| CN(C)c1cc(NC(=O)CN(C(=O)OCOC(=O)C23CC4CC(CC(C4)C2)C3)C(C)(C)C)c(O)c2c1C[C@H]1C[C@H]3[C@H](N(C)C)C(O)=C(C(N)=O)C(=O)[C@@]3(O)C(O)=C1C2=O [Example 57, ({[(2-{[(5aR,6aS,7S,10aS)-9-(aminocarbonyl)-4,7-bis(dimethylamino)-1,8,10a,11-tetrahydroxy-10,12-dioxo-5,5a,6,6a,7,10,10a,12-octahydrotetracen-2-yl]amino}-2-oxoethyl)(tert-butyl)amino]carbonyl}oxy)methyl adamantane-1-carboxylate] | 0.5 to 4 µg/mL (≈ 0.608 to 4.87 µM) | > 64 µg/mL |  |  | 6.36 mg/kg | 1.17 mg/kg | 0.5 to 2 µg/mL (≈ 0.608 to 2.43 µM) | 4 to 16 µg/mL (≈ 4.87 to 19.5 µM) |  |  |  |  | 1 to 8 µg/mL (≈ 1.22 to 9.73 µM) | 4 to 16 µg/mL (≈ 4.87 to 19.5 µM) | > 64 µg/mL | > 64 µg/mL |
| CN(C)c1cc(NC(=O)CN(C(=O)OCOC(=O)c2cccc3ccccc23)C(C)(C)C)c(O)c2c1C[C@H]1C[C@H]3[C@H](N(C)C)C(O)=C(C(N)=O)C(=O)[C@@]3(O)C(O)=C1C2=O [Example 81, ({[(2-{[(5aR,6aS,7S,10aS)-9-(aminocarbonyl)-4,7-bis(dimethylamino)-1,8,10a,11-tetrahydroxy-10,12-dioxo-5,5a,6,6a,7,10,10a,12-octahydrotetracen-2-yl]amino}-2-oxoethyl)(tert-butyl)amino]carbonyl}oxy)methyl 1-naphthoate] | 0.5 to 1 µg/mL (≈ 0.614 to 1.23 µM) | 8 to 16 µg/mL (≈ 9.83 to 19.7 µM) |  |  | 16 to 32 mg/kg | > 4 mg/kg | 0.5 to 2 µg/mL (≈ 0.614 to 2.46 µM) | 4 to 8 µg/mL (≈ 4.91 to 9.83 µM) |  |  |  |  |  |  |  |  |
| CN(C)c1cc(NC(=O)CN(C(=O)OCOC(=O)c2ccc3ccccc3c2)C(C)(C)C)c(O)c2c1C[C@H]1C[C@H]3[C@H](N(C)C)C(O)=C(C(N)=O)C(=O)[C@@]3(O)C(O)=C1C2=O [Example 82, ({[(2-{[(5aR,6aS,7S,10aS)-9-(aminocarbonyl)-4,7-bis(dimethylamino)-1,8,10a,11-tetrahydroxy-10,12-dioxo-5,5a,6,6a,7,10,10a,12-octahydrotetracen-2-yl]amino}-2-oxoethyl)(tert-butyl)amino]carbonyl}oxy)methyl 2-naphthoate] |  | > 64 µg/mL |  |  | 22 mg/kg | 0.52 mg/kg | 4 to 6 µg/mL (≈ 4.91 to 7.37 µM) | 4 to 8 µg/mL (≈ 4.91 to 9.83 µM) |  |  |  |  |  |  |  |  |
| CN(C)c1cc(NC(=O)CN(C(=O)OCOC(=O)c2c(F)cccc2F)C(C)(C)C)c(O)c2c1C[C@H]1C[C@H]3[C@H](N(C)C)C(O)=C(C(N)=O)C(=O)[C@@]3(O)C(O)=C1C2=O [Example 90, ({[(2-{[(5aR,6aS,7S,10aS)-9-(aminocarbonyl)-4,7-bis(dimethylamino)-1,8,10a,11-tetrahydroxy-10,12-dioxo-5,5a,6,6a,7,10,10a,12-octahydrotetracen-2-yl]amino}-2-oxoethyl)(tert-butyl)amino]carbonyl}oxy)methyl 2,6-difluorobenzoate] | 2 to 4 µg/mL (≈ 2.5 to 5 µM) | > 64 µg/mL |  |  | 16 to 32 mg/kg | 0.5 to 1 mg/kg | 0.25 to 2 µg/mL (≈ 0.313 to 2.5 µM) | 1 to 16 µg/mL (≈ 1.25 to 20 µM) |  |  |  |  |  |  |  |  |
| CN(C)c1cc(NC(=O)CN(C(=O)OCOC(=O)c2ccccc2F)C(C)(C)C)c(O)c2c1C[C@H]1C[C@H]3[C@H](N(C)C)C(O)=C(C(N)=O)C(=O)[C@@]3(O)C(O)=C1C2=O [Example 91, ({[(2-{[(5aR,6aS,7S,10aS)-9-(aminocarbonyl)-4,7-bis(dimethylamino)-1,8,10a,11-tetrahydroxy-10,12-dioxo-5,5a,6,6a,7,10,10a,12-octahydrotetracen-2-yl]amino}-2-oxoethyl)(tert-butyl)amino]carbonyl}oxy)methyl 2-fluorobenzoate] | 0.5 to 2 µg/mL (≈ 0.64 to 2.56 µM) | > 64 µg/mL |  |  | 11.7 mg/kg | 1.21 mg/kg | 0.12 to 0.25 µg/mL (≈ 0.153 to 0.32 µM) | 0.25 to 2 µg/mL (≈ 0.32 to 2.56 µM) |  |  |  |  |  |  |  |  |
| CN(C)c1cc(NC(=O)CN(C(=O)OCOC(=O)c2ccc(N3CCCC3)cc2)C(C)(C)C)c(O)c2c1C[C@H]1C[C@H]3[C@H](N(C)C)C(O)=C(C(N)=O)C(=O)[C@@]3(O)C(O)=C1C2=O [Example 93, ({[(2-{[(5aR,6aS,7S,10aS)-9-(aminocarbonyl)-4,7-bis(dimethylamino)-1,8,10a,11-tetrahydroxy-10,12-dioxo-5,5a,6,6a,7,10,10a,12-octahydrotetracen-2-yl]amino}-2-oxoethyl)(tert-butyl)amino]carbonyl}oxy)methyl 4-pyrrolidin-1-ylbenzoate] | 1 to 4 µg/mL (≈ 1.2 to 4.8 µM) |  |  |  | > 32 mg/kg | 0.5 to 1 mg/kg | 1 to 2 µg/mL (≈ 1.2 to 2.4 µM) | 32 to 64 µg/mL (≈ 38.4 to 76.8 µM) |  |  |  |  |  |  |  |  |
| CCCCN(CC(=O)Nc1cc(N(C)C)c2c(c1O)C(=O)C1=C(O)[C@]3(O)C(=O)C(C(N)=O)=C(O)[C@@H](N(C)C)C3CC1C2)C(=O)OCc1oc(=O)oc1-c1ccccc1 (stereo partly drawn) [Example 112, (2-oxo-5-phenyl-1,3-dioxol-4-yl)methyl 2-{[(7S,10aS)-9-(aminocarbonyl)-4,7-bis(dimethylamino)-1,8,10a,11-tetrahydroxy-10,12-dioxo-5,5a,6,6a,7,10,10a,12-octahydrotetracen-2-yl]amino}-2-oxoethyl(butyl)carbamate] | 1 to 4 µg/mL (≈ 1.24 to 4.98 µM) | 2 to 8 µg/mL (≈ 2.49 to 9.95 µM) |  |  | 6.12 mg/kg | 0.48 mg/kg | 2 to 8 µg/mL (≈ 2.49 to 9.95 µM) | 4 to 16 µg/mL (≈ 4.98 to 19.9 µM) |  |  |  |  |  |  |  |  |
| CCCCN(CC(=O)Nc1cc(N(C)C)c2c(c1O)C(=O)C1=C(O)[C@]3(O)C(=O)C(C(N)=O)=C(O)[C@@H](N(C)C)C3CC1C2)C(=O)OCc1oc(=O)oc1-c1ccc(OC)cc1 (stereo partly drawn) [Example 113, [5-(4-methoxyphenyl)-2-oxo-1,3-dioxol-4-yl]methyl 2-{[(7S,10aS)-9-(aminocarbonyl)-4,7-bis(dimethylamino)-1,8,10a,11-tetrahydroxy-10,12-dioxo-5,5a,6,6a,7,10,10a,12-octahydrotetracen-2-yl]amino}-2-oxoethyl(butyl)carbamate] | 1 to 4 µg/mL (≈ 1.2 to 4.8 µM) | 2 to 16 µg/mL (≈ 2.4 to 19.2 µM) |  |  | 7.01 mg/kg | 0.4 mg/kg | 4 to 16 µg/mL (≈ 4.8 to 19.2 µM) | 4 to 32 µg/mL (≈ 4.8 to 38.4 µM) |  |  |  |  |  |  |  |  |
